Literature values in EP4286484B1, “AQUEOUS PRETREATMENT LIQUID, INK SET, PRINTED ITEM, AND SEPARATION METHOD” (priority 2022, dated 2023).

Conditions: anhydrous calcium salt of the named counter anion

solubility of the corresponding anhydrous calcium salt in 100 g of water at 20°C: 2 g
Compound: O=C([O-])c1ccccc1.O=C([O-])c1ccccc1.[Ca+2] [benzoate ion]
